The subject of one series is DENV2. The series is described as follows: microbe, parasite or virus in culture. To be noted: for SI (selectivity index, CC50/EC50): CC50 Huh-7 / EC50 DENV; for inhibition at 1 µM / inhibition at 10 µM / EC50: Dengue virus; for inhibition at 1 µM / inhibition at 10 µM: DENV2, 72 h; for inhibition at 1 µM / inhibition at 10 µM / DENV2 % Inhibition at 10 μM: Huh-7-DV-Fluc cells, three days; for inhibition at 10 µM / anti-DENV activity in words / DENV2 % Inhibition at 10 μM: 10 μM; for anti-DENV activity in words: >32% inhibition of DENV-2 at 10 μM considered as active. It counts as cell-based, dengue virus.

The nature of series [1]: Cytotoxicity assay (XTT method). The conditions noted are these: human, mean ± SD; for viability at 72 h, 20 µM / viability at 72 h, 200 µM: Huh-7 cells, XTT; for viability at 72 h, 20 µM: read-out: Huh-7 Cell % viability at 20 μM; for viability at 72 h, 200 µM: read-out: Huh-7 Cell % viability at 200 μM; for CC50 at 72 h: uninfected Huh-7 cells, read-out: CC50 (concentration causing a 50% growth inhibition of uninfected Huh-7 cells). The class given is cell-based, Human. The procedure:
For cytotoxicity tests, run in parallel with antiviral assays, plates at an initial density of 5 × 10^3 cells/well were treated with or without serial dilutions of test compounds. Cell viability was determined after 72 h at 37 °C in a humidified CO2 (5%) atmosphere by the (2,3-bis[2-methyloxy-4-nitro-5-sulfophenyl]-2H-tetrazolium-5-carboxanilide) (XTT) method.

[2] abbreviates: DENV2, DENV replication, mean ± SD, read-out: EC50 (concentration resulting in a 50% inhibition in virus production).

Like-named read-outs stand apart in the source and are kept apart here.

For orientation: melting point means the temperature of the solid-liquid transition. For orientation: inhibition means the relative decrease from the control value, in per cent. A lower inhibition goes with a weak effect. By viability is commonly meant a read-out of living cells in per cent, often relative to untreated cells.

Procedure for DENV2: Anti-DENV activities were determined by firefly luciferase activity.
Huh-7-DV-Fluc cells were seeded in 24-well plates at a density of 2 × 10^4 cells per well, and treated with the 3-arylquinoxaline compounds at two concentrations (1 and 10 μM) or 0.1% DMSO as control. After three days of incubation, the luciferase activity assay was performed using the Bright-Glo Luciferase assay system (Promega, Madison, WI, USA) according to the manufacturer’s instructions.

`Oc1ccc(Cc2nc3ccccc3nc2-c2ccc(O)cc2)cc1` showed a melting point of 184.8 to 185.9 °C.
Regarding `COc1ccc(-c2cc3ccccc3nc2C(O)c2ccccc2)cc1` (centres unmarked) [Compound 3, 2-(hydroxyphenylmethyl)-3-(4-methoxyphenyl)quinoline, reference compound], the “SI (selectivity index, CC50/EC50)” value with DENV2 is listed as 11.07. In the series on DENV2 (mean ± SD), the inhibition at 1 µM was 12.4 ± 2.67% and the inhibition at 10 µM is 50.1 ± 3.47%. The EC50 in the series on DENV2 (setting [2]) worked out at 12.6 ± 2.16 µM. For the same compound, in series [1], the viability at 72 h, 20 µM turned out to be 90.3 ± 2.62%; the viability at 72 h, 200 µM turned out to be 21.9 ± 3.55%; the CC50 at 72 h stood at 139 ± 2.32 µM.
In the case of `O=C(c1ccc(O)cc1)c1nc2ccccc2cc1-c1ccc(O)cc1` [Compound 4, 2-(4-hydroxybenzoyl)-3-(4-hydroxyphenyl)quinoline, reference compound], the “SI (selectivity index, CC50/EC50)” value with DENV2 is 12.44. In the series on DENV2 (mean ± SD), this compound displayed an inhibition at 1 µM of 11.2 ± 2.31% and an inhibition at 10 µM of 41.2 ± 2.88%. Further, the EC50 in the series with DENV2 (setting [2]) was determined as 13.2 ± 1.23 µM. In addition, in series [1], the viability at 72 h, 20 µM is 96.6 ± 8.78%; the viability at 72 h, 200 µM came to 41.4 ± 5.71%; the CC50 at 72 h was 164 ± 2.32 µM.
Consider `OC(c1ccccc1)c1nc2ccccc2nc1-c1ccccc1` (centres unmarked) [Compound 15a, Phenyl(3-phenylquinoxalin-2-yl)methanol], for which the melting point was 146 to 147 °C. Besides, in the series on DENV2, the “anti-DENV activity in words” value was “inactive”. For the same compound, in the series on DENV2 (mean ± SD), at 1 µM the inhibition was 2.13 ± 1.12% and 10 µM produced 5.31 ± 1.73% inhibition. In series [1], the viability at 72 h, 20 µM was found to be 105 ± 5.66% and the viability at 72 h, 200 µM turned out to be 59.9 ± 8.33%.
Turning to `COc1ccc(C(O)c2nc3ccccc3nc2-c2ccccc2)cc1` (centres unmarked) [Compound 15b, (4-Methoxyphenyl)(3-phenylquinoxalin-2-yl)methanol], the melting point was 166 to 168.6 °C. Also, the “anti-DENV activity in words” value in the series on DENV2 is “moderately active”. Also, in the series on DENV2 (mean ± SD), the “DENV2 % Inhibition at 10 μM” value stood at 48.67 ± 4.71%, at 1 µM the inhibition was 24.3 ± 2.51% and the inhibition at 10 µM turned out to be 48%. Further, in series [1], the viability at 72 h, 20 µM was found to be 103 ± 1.79% and the viability at 72 h, 200 µM was 61.4 ± 2.67%.
Turning to `OC(c1ccccc1)c1nc2cc(Cl)c(Cl)cc2nc1-c1ccccc1` (centres unmarked) [Compound 16a, (6,7-Dichloro-3-phenylquinoxalin-2-yl)(phenyl)methanol], the melting point fell in the range of 136.4 to 136.9 °C. In the series on DENV2 (mean ± SD), the inhibition at 1 µM came out at 1.97 ± 0.72% and the inhibition at 10 µM turned out to be 6.42 ± 2.97%. Also, in series [1], the viability at 72 h, 20 µM came to 108 ± 8.91% and the viability at 72 h, 200 µM is 20.6 ± 5.37%.
`COc1ccc(C(O)c2nc3cc(Cl)c(Cl)cc3nc2-c2ccccc2)cc1` (centres unmarked) [Compound 16b, (6,7-Dichloro-3-phenylquinoxalin-2-yl)(4-methoxyphenyl)methanol] gave a melting point of 157.2 to 157.6 °C. Also, the “anti-DENV activity in words” value in the series with DENV2 was “inactive”. Moreover, in the series with DENV2 (mean ± SD), the “DENV2 % Inhibition at 10 μM” value is given as 9.46 ± 2.88%, the inhibition at 1 µM turned out to be 2.41 ± 1.48% and testing at 10 µM gave an inhibition of 9%. Further, in series [1], the viability at 72 h, 20 µM was 104 ± 4.18% and the viability at 72 h, 200 µM came to 73 ± 9.05%.
Take `OC(c1ccccc1)c1nc2ccccc2nc1-c1ccc(F)cc1` (centres unmarked) [Compound 17a, [3-(4-Fluorophenyl)quinoxalin-2-yl](phenyl)methanol]: the melting point fell in the range of 157.4 to 158 °C. In the series on DENV2 (mean ± SD), this compound showed an inhibition at 1 µM of 2.58 ± 0.85% and an inhibition at 10 µM of 4.78 ± 1.93%. In addition, in series [1], the viability at 72 h, 20 µM turned out to be 96.3 ± 3.52% and the viability at 72 h, 200 µM stood at 73.3 ± 6.57%.
`COc1ccc(C(O)c2nc3ccccc3nc2-c2ccc(F)cc2)cc1` (centres unmarked) [Compound 17b, [3-(4-Fluorophenyl)quinoxalin-2-yl](4-methoxyphenyl)methanol] displayed a melting point of 173 to 174.7 °C. For the same compound, in the series on DENV2 (mean ± SD), the “DENV2 % Inhibition at 10 μM” value worked out at 22.89 ± 4.54%, the inhibition at 1 µM was 19.2 ± 3.5% and the inhibition at 10 µM was found to be 22%. For the same compound, in series [1], the viability at 72 h, 20 µM came out at 102 ± 1.98% and the viability at 72 h, 200 µM is 101 ± 1.27%.
In turn, `OC(c1ccccc1)c1nc2cc(Cl)c(Cl)cc2nc1-c1ccc(F)cc1` (centres unmarked) [Compound 18a, [6,7-Dichloro-3-(4-fluorophenyl)quinoxalin-2-yl](phenyl)methanol] came in with a melting point of 150 to 150.2 °C. Moreover, in the series on DENV2 (mean ± SD), testing at 1 µM gave an inhibition of 3.41 ± 1.11% and the inhibition at 10 µM is 6.74 ± 1.57%. Moreover, in series [1], the viability at 72 h, 20 µM was determined as 102 ± 3.96% and the viability at 72 h, 200 µM was 21.5 ± 1.6%.
As to `COc1ccc(-c2nc3ccccc3nc2C(O)c2ccc(OC)cc2)cc1` (centres unmarked) [Compound 19b, (4-Methoxyphenyl)[3-(4-methoxyphenyl)quinoxalin-2-yl]methanol], the melting point fell in the range of 132.4 to 136 °C. Besides, in the series on DENV2 (mean ± SD), at 1 µM the inhibition was 35.5 ± 4.82% and the inhibition at 10 µM was determined as 47.7 ± 5.41%. In addition, in series [1], the viability at 72 h, 20 µM came out at 96.4 ± 1.24% and the viability at 72 h, 200 µM came out at 21.3 ± 1.55%.
`COc1ccc(-c2nc3cc(Cl)c(Cl)cc3nc2C(O)c2ccccc2)cc1` (centres unmarked) [Compound 20a, [6,7-Dichloro-3-(4-methoxyphenyl)quinoxalin-2-yl](phenyl)methanol]: the melting point is 156.8 to 157.1 °C. Moreover, in the series with DENV2 (mean ± SD), the “DENV2 % Inhibition at 10 μM” value was found to be 58.71 ± 2.86%, the inhibition at 1 µM was found to be 16.3 ± 3.42% and the inhibition at 10 µM is more than 50%. Moreover, the “SI (selectivity index, CC50/EC50)” value with DENV2 was more than 35.21. For the same compound, in the series with DENV2 (DENV2, read-out: EC50 (concentration resulting in a 50% inhibition in virus production)), the EC50 was 5.68 ± 0.81 µM. Moreover, in series [1], the viability at 72 h, 20 µM was 99.4 ± 3.31%; the viability at 72 h, 200 µM worked out at 27.1 ± 1.24%; the CC50 at 72 h was more than 200 µM.
Consider `COc1ccc(-c2nc3cc(Cl)c(Cl)cc3nc2C(O)c2ccc(OC)cc2)cc1` (centres unmarked) [Compound 20b, [6,7-Dichloro-3-(4-methoxyphenyl)quinoxalin-2-yl](4-methoxyphenyl)methanol], for which the melting point lay in the range of 144.1 to 144.5 °C. Also, the “anti-DENV activity in words” value with DENV2 was “inactive”. In the series on DENV2 (mean ± SD), at 1 µM the inhibition was 2.75 ± 1.69% and 10 µM produced 4.39 ± 1.52% inhibition. In series [1], the viability at 72 h, 20 µM was 95.5 ± 3.96% and the viability at 72 h, 200 µM worked out at 34.2 ± 4.97%.
Regarding `O=C(c1ccccc1)c1nc2ccccc2nc1-c1ccccc1` [Compound 21a, Phenyl(3-phenylquinoxalin-2-yl)methanone], the “anti-DENV activity in words” value in the series with DENV2 was “inactive”. In the series with DENV2 (mean ± SD), this compound registered an inhibition at 1 µM of 2.76 ± 1.55% and an inhibition at 10 µM of 7.98 ± 2.14%. Moreover, in series [1], the viability at 72 h, 20 µM was 107 ± 2.3% and the viability at 72 h, 200 µM amounted to 79.5 ± 7.07%.
The compound `O=C(c1ccccc1)c1nc2cc(Cl)c(Cl)cc2nc1-c1ccccc1` [Compound 22a, (6,7-Dichloro-3-phenylquinoxalin-2-yl)(phenyl)methanone] showed a melting point of 154.3 to 156.8 °C. Also, in the series with DENV2 (mean ± SD), at 1 µM the inhibition was 12.7 ± 3.91% and 10 µM produced 19.7 ± 4.17% inhibition. In addition, in series [1], the viability at 72 h, 20 µM stood at 109 ± 1.36% and the viability at 72 h, 200 µM came out at 103 ± 2.67%.
Compound `COc1ccc(C(=O)c2nc3cc(Cl)c(Cl)cc3nc2-c2ccccc2)cc1` [Compound 22b, (6,7-Dichloro-3-phenylquinoxalin-2-yl)(4-methoxyphenyl)methanone] registered a melting point of 171.9 to 172.3 °C. In the series with DENV2 (mean ± SD), the inhibition at 1 µM amounted to 5.19 ± 2.78% and 10 µM produced 24.7 ± 1.89% inhibition. Besides, in series [1], the viability at 72 h, 20 µM is 103 ± 8.3% and the viability at 72 h, 200 µM turned out to be 92 ± 3.08%.
In the case of `O=C(c1ccc(O)cc1)c1nc2ccccc2nc1-c1ccc(O)cc1` [Compound 29, (4-Hydroxyphenyl)(3-(4-hydroxyphenyl)quinoxalin-2-yl)methanone], in the series with DENV2 (mean ± SD), 1 µM produced 2.36 ± 1.11% inhibition and the inhibition at 10 µM was determined as 4.25 ± 1.39%. Besides, in series [1], the viability at 72 h, 20 µM worked out at 104 ± 2.91% and the viability at 72 h, 200 µM turned out to be 51.9 ± 1.62%.

The values above are taken from publication PMC6801405, “Discovery of 3-Arylquinoxaline Derivatives as Potential Anti-Dengue Virus Agents” (International Journal of Molecular Sciences, 2019).
